≈ marks a conversion by molar mass, not a printed value.
How the values were obtained:
Format in all cases: cell-based
[1] = test system: Endothelial cell line HUVEC; experiment: Inhibitory activity on cells, CellTiter-Glo viability, HUVEC; conditions: Homo sapiens, 72 hours treatment
Procedure: (§1) HUVEC (purchased from Allcells Biological Technology (Shanghai) Co., Ltd.); UM-UC-3 (ATCC); LNCaP (ATCC); RM-1 (purchased from Nanjing Cobioer Biosciences Co., Ltd.) (1) On the first day, the cells were seeded in a 96-well plate, and the previous medium was poured off. 5 mL of DPBS was added to wash the cells, and then removed by a pipette and discarded. Then, 1 mL of trypsin (0.25%) was added, and the plate was placed in a cell culture incubator at 37 °C, 5% CO2 for digestion, and taken out after about 2 to 5 minutes. New corresponding medium was added, and pipetted to resuspend the cells evenly, and the cells were then counted with an automated cell counter. Regarding HUVEC, the medium used was endothelial cell complete medium; regarding UM-UC-3, the medium used was 89 v % EMEM+10 v % fetal bovine serum+1 v % penicillin-streptomycin double anti-body; regarding LNcaP, the medium used was 89 v % RPM11640+10 v % fetal bovine serum+1 v % penicillin-streptomycin double anti-body; and regarding RM1, the medium used was 89 v % DMEM+10 v % fetal bovine serum+1 v % penicillin-streptomycin double anti-body. (2) HUVEC cells were seeded in columns 1 to 11 of a 96-well plate (Corning, Cat. No. 3610) at a density of 2000 cells per well in 100 μL of medium, and the medium free of cell was added to the wells of column 12. The other three types of cells were also seeded, wherein UM-UC-3 and RM-1 cells were seeded at a density of 3000 cells per well, and LNCap cells were seeded at a density of 5000 cells per well. Then, the plate was placed in an incubator at 37° C., 5% CO2 for 24 hours. (3) On the second day, the compounds of the present invention and the reference drug nitroxoline (obtained according to the preparation method disclosed in the prior art) were diluted in gradient (2.5 folds, started at 100 μmol) to obtain 8 dose points (there were a total of 8 columns of wells; the first column of wells had the highest concentration, the concentration decreased in turn, and the last column of wells had the lowest concentration). 10 μL of the compound diluted in gradient was added to the 100 μL of cells in column 1 to column 10 with an 8-channel pipette. 10 μL of the corresponding medium containing 0.33 v % DMSO was added to column 11 and column 12. The plate was incubated in an incubator at 37° C., 5% CO2 for 72 hours (note: column 11 was used as MAX well with cells and no compounds; and column 12 was used as MIN well with no cells and no compounds). (4) After treating with the compounds of the present invention for 72 hours, the cell viability detection reagents in the above CellTiter-Glo® assay kit were added to the 96-well plate at 50 μL per well according to the instructions. The plate was shaken on a shaker in the dark for 5 to 10 minutes, and then the cell activity was determined by a multifunctional microplate reader. Finally, the growth inhibition of the compounds of the present invention on the cells was plotted by XLFIT 5.3 software, and the IC50 values of the compounds of the present invention were calculated.

[2] = test system: Mouse prostate cancer cell line RM1; experiment: Inhibitory activity on cancer cells, CellTiter-Glo viability, RM1; conditions: 72 hours treatment
Procedure: as §1

[3] = test system: Bladder cancer cell line UM-UC-3; experiment: Inhibitory activity on cancer cells, CellTiter-Glo viability, UM-UC-3; conditions: Homo sapiens, UMUC3, 72 hours treatment
Procedure: as §1

[4] = test system: Prostate cancer cell line LNcaP; experiment: Inhibitory activity on cancer cells, CellTiter-Glo viability, LNcaP; conditions: Homo sapiens, 72 hours treatment
Procedure: as §1

[5] = test system: Staphylococcus aureus (methicillin-resistant and sensitive clinical isolates; ATCC29213); experiment: MIC by micro broth dilution (CLSI), Staphylococcus aureus; conditions: for MIC50 / MIC90: Clinical strain; for MIC50: read-out: MIC50; for MIC90: read-out: MIC90; for MIC: Standard strain ATCC29213, read-out: MIC
How it was run: (§2)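 Compounds were dissolved in DMSO and tested at 128 to 0.06 mg/L in cation-adjusted Mueller-Hinton broth. Overnight cultures were set to 0.5 McFarland, diluted 100-fold to a final 10^5 CFU/mL, and incubated at 35±2° C for 20 hours in air. Results were interpreted by CLSI 2019 M100 criteria.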

[6] = test system: Escherichia coli (carbapenem-resistant clinical isolate; ATCC25922); experiment: MIC by micro broth dilution (CLSI), Escherichia coli; conditions: for MIC50 / MIC90: ATCC25922, Clinical strain; for MIC50 / MIC90 / MIC: Escherichia coli; for MIC50: read-out: MIC50; for MIC90: read-out: MIC90; for MIC: Standard strain ATCC25922, read-out: MIC
How it was run: as §2

[7] = test system: Acinetobacter baumannii (carbapenem-resistant clinical isolates; ATCC19606); experiment: MIC by micro broth dilution (CLSI), Acinetobacter baumannii; conditions: Acinetobacter baumannii; for MIC50 / MIC90: ATCC19606, Clinical strain; for MIC50: read-out: MIC50; for MIC90: read-out: MIC90; for MIC: Standard strain ATCC19606, read-out: MIC
How it was run: as §2

SMILES	IC50 [2] [µM]	IC50 [3] [µM]	IC50 [4] [nM]	MIC50 [5] [µg/mL]	MIC90 [5] [µg/mL]	MIC [5] [µg/mL]	MIC50 [6] [µg/mL]	MIC90 [6] [µg/mL]	MIC [6] [µg/mL]	MIC50 [7] [µg/mL]	MIC90 [7] [µg/mL]	MIC [7] [µg/mL]	IC50 [1] [nM]	inhibitory effect against Escherichia coli compared with the reference drug nitroxoline ([6]; MIC comparison)
O=[N+]([O-])c1cc(Cl)c2c(OCCF)ccnc2c1O [Example 43, 5-Chloro-4-(2-fluoroethoxy)-7-nitroquinolin-8-ol]	10.6	12.3	6260	8 (≈ 27.9 µM)	8 (≈ 27.9 µM)	8 (≈ 27.9 µM)	128 (≈ 447 µM)	128 (≈ 447 µM)	128 (≈ 447 µM)	128 (≈ 447 µM)	128 (≈ 447 µM)	128 (≈ 447 µM)	7540	–
CC1CCCCN1c1ccnc2c(O)c([N+](=O)[O-])ccc12 (stereo not drawn) [Example 20, 4-(2-Methylpiperidinyl)-7-nitroquinolin-8-ol]	6.8	4.38	3330	–	–	–	–	–	–	–	–	–	5600	–
CN1CCN(c2ccnc3c(O)c([N+](=O)[O-])ccc23)CC1 [Example 18, 4-(4-Methylpiperazinyl)-7-nitroquinolin-8-ol]	–	13.2	21200	128 (≈ 444 µM)	128 (≈ 444 µM)	128 (≈ 444 µM)	128 (≈ 444 µM)	128 (≈ 444 µM)	128 (≈ 444 µM)	128 (≈ 444 µM)	128 (≈ 444 µM)	128 (≈ 444 µM)	64400	–
O=[N+]([O-])c1ccc2c(N3CC=CC3)ccnc2c1O [Example 23, 4-(2,5-Dihydro-1H-pyrrolyl)-7-nitroquinolin-8-ol]	> 100	> 100	> 100000	–	–	–	–	–	–	–	–	–	> 100000	–
CN(C)c1ccnc2c(O)c([N+](=O)[O-])ccc12 [Example 17, 4-(Dimethylamino)-7-nitroquinolin-8-ol]	–	16.9	23600	128 (≈ 549 µM)	128 (≈ 549 µM)	128 (≈ 549 µM)	64 (≈ 274 µM)	64 (≈ 274 µM)	128 (≈ 549 µM)	128 (≈ 549 µM)	128 (≈ 549 µM)	128 (≈ 549 µM)	27400	–
O=[N+]([O-])c1cc(Cl)c2c(C3CC3)ccnc2c1O [Example 49, 5-Chloro-4-cyclopropyl-7-nitroquinolin-8-ol]	5.32	4.07	1040	–	–	–	–	–	–	–	–	–	1590	–
O=[N+]([O-])c1ccc2c(Br)ccnc2c1O [Example 16, 4-Bromo-7-nitroquinolin-8-ol]	–	8.9	3900	8 (≈ 29.7 µM)	8 (≈ 29.7 µM)	8 (≈ 29.7 µM)	16 (≈ 59.5 µM)	16 (≈ 59.5 µM)	32 (≈ 119 µM)	8 (≈ 29.7 µM)	8 (≈ 29.7 µM)	32 (≈ 119 µM)	8100	–
O=[N+]([O-])c1ccc2c(Cl)ccnc2c1O [Example 12, 4-Chloro-7-nitroquinolin-8-ol]	–	7.5	4100	2 (≈ 8.9 µM)	2 (≈ 8.9 µM)	2 (≈ 8.9 µM)	4 (≈ 17.8 µM)	4 (≈ 17.8 µM)	4 (≈ 17.8 µM)	2 (≈ 8.9 µM)	4 (≈ 17.8 µM)	4 (≈ 17.8 µM)	7500	comparable to that of the reference drug nitroxoline

Second part, led by results:

IC50 [2] [µM]	IC50 [3] [µM]	IC50 [4] [nM]	MIC50 [5] [µg/mL]	MIC90 [5] [µg/mL]	MIC [5] [µg/mL]	MIC50 [6] [µg/mL]	MIC90 [6] [µg/mL]	MIC [6] [µg/mL]	MIC50 [7] [µg/mL]	MIC90 [7] [µg/mL]	MIC [7] [µg/mL]	SMILES	IC50 [1] [nM]	inhibitory effect against Escherichia coli compared with the reference drug nitroxoline ([6]; MIC comparison)
7.64	1.57	530	0.25 (≈ 0.945 µM)	0.5 (≈ 1.89 µM)	0.5 (≈ 1.89 µM)	128 (≈ 484 µM)	128 (≈ 484 µM)	> 128	128 (≈ 484 µM)	128 (≈ 484 µM)	4 (≈ 15.1 µM)	O=[N+]([O-])c1ccc2c(Cl)c(C3CC3)cnc2c1O [Example 74, 4-chloro-3-cyclopropyl-7-nitroquinolin-8-ol]	1280	–
4.29	3.4	2860	> 128	> 128	> 128	> 128	> 128	> 128	> 128	> 128	> 128	CC(C)C(=O)N1CCN(c2ccnc3c(O)c([N+](=O)[O-])cc(Cl)c23)CC1 [Example 50, 4-(5-Chloro-8-hydroxy-7-nitroquinolin-4-yl)-1-(2,2-dimethylacetyl)piperazine]	2940	–
2.88	2.23	250	4 (≈ 11.6 µM)	4 (≈ 11.6 µM)	4 (≈ 11.6 µM)	> 128	> 128	> 128	> 128	> 128	> 128	O=[N+]([O-])c1cc(Cl)c2c(N3CCC(F)(F)CC3)ccnc2c1O [Example 55, 5-Chloro-4-(4,4-difluoropiperidin-1-yl)-7-nitroquinolin-8-ol]	800	–
2.05	9.27	1770	–	–	–	–	–	–	–	–	–	COc1c(C2CC2)cnc2c(O)c([N+](=O)[O-])ccc12 [Example 75, 3-cyclopropyl-4-methoxy-7-nitroquinolin-8-ol]	3410	–
21.7	11.5	13200	–	–	–	–	–	–	–	–	–	O=[N+]([O-])c1cc(Cl)c2c(F)ccnc2c1O [Example 65, 5-Chloro-4-fluoro-7-nitroquinolin-8-ol]	9030	–
1.62	1.42	250	16	16	16	32	64	64	128	> 128	64	COCCCOC1CCN(c2ccnc3c(O)c([N+](=O)[O-])cc(Cl)c23)CC1.Cl.Cl [Example 54, 5-chloro-4-(4-(3-methoxypropoxy)piperidin-1-yl)-7-nitroquinolin-8-ol dihydrochloride]	500	–
1.13	5.82	640	–	–	–	–	–	–	–	–	–	O=[N+]([O-])c1cc(Cl)c2c(OC3CCCCC3)ccnc2c1O [Example 60, 5-Chloro-4-(cyclohexyloxy)-7-nitroquinolin-8-ol]	700	–
2.35	0.49	550	–	–	–	–	–	–	–	–	–	CCC(C)OC(=O)N1CCN(c2ccnc3c(O)c([N+](=O)[O-])cc(Cl)c23)CC1 (stereo not drawn) [Example 57, (1-Methyl)propyl 4-(5-chloro-8-hydroxy-7-nitroquinolin-4-yl)piperazine-1-carboxylate]	470	–
7.47	7.07	2010	–	–	–	–	–	–	–	–	–	O=[N+]([O-])c1cc(Cl)c2c(N3CCC4(CC3)CC4)ccnc2c1O [Example 63, 5-Chloro-7-nitro-4-(6-azaspiro[2.5]octan-6-yl)quinolin-8-ol]	1820	–
0.91	2.55	890	–	–	–	–	–	–	–	–	–	CC(C)OC(=O)N1CCN(c2ccnc3c(O)c([N+](=O)[O-])cc(Cl)c23)CC1 [Example 58, Isopropyl 4-(5-chloro-8-hydroxy-7-nitroquinolin-4-yl)piperazine-1-carboxylate]	680	–
